# Test system: dog
# Test: dog liver toxicity study
# Conditions: dog liver toxicity study; liver markers ALT, AST, AlkP and bilirubin
# Method: In some embodiments, liver toxicity can be assessed in suitable in vivo assays. In some embodiments, liver toxicity is assessed by monitoring any increases in the levels of liver markers ALT, AST, AlkP and bilirubin.
row,Molecule,liver markers
1,"CCCn1cc(-n2c(Cl)c(Sc3cccc(C(=O)O)c3F)c3ccc(Cl)c(F)c32)cn1 [Compound 1-13, 3-((2,6-dichloro-7-fluoro-1-(1-propyl-1H-pyrazol-4-yl)-1H-indol-3-yl)thio)-2-fluorobenzoic acid]",did not exhibit the same effects

# Same assay, conditions: dosed at 100 mpk for 5 days
row,Molecule,"increases in liver markers ALT, AST, AlkP and bilirubin"
1,"CCCn1cc(-n2c(Cl)c(Sc3cccc(C(=O)O)c3F)c3ccc(Cl)c(F)c32)cn1 [Compound 1-13, 3-((2,6-dichloro-7-fluoro-1-(1-propyl-1H-pyrazol-4-yl)-1H-indol-3-yl)thio)-2-fluorobenzoic acid]","no increases in liver markers ALT, AST, AlkP and bilirubin were observed"

# Target: human autotaxin (Homo sapiens (Human), UniProt Q13822)
# Test: Human Autotaxin Assay (choline release from LPC, Hep3B conditioned media)
# Assay type: biochemical
# Conditions: ATX activity in concentrated conditioned media from Hep3B cells, substrate LPC
row,IC50 [µM],Molecule
1,< 0.5,"O=C(O)c1cccc(Sc2c(Br)n(-c3cccnc3)c3c(F)c(Cl)ccc23)c1F [Compound 2-2, 3-((2-bromo-6-chloro-7-fluoro-1-(pyridin-3-yl)-1H-indol-3-yl)thio)-2-fluorobenzoic acid]"
2,< 0.5,"NC(=O)CCCn1cc(-n2c(C3CC3)c(Sc3cccc(C(=O)O)c3F)c3ccc(Cl)c(F)c32)cn1 [Compound 1-125, 3-(1-(1-(4-amino-4-oxobutyl)-1H-pyrazol-4-yl)-(6-chloro-2-cyclopropyl-7-fluoro-1H-indol-3-yl)thio)-2-fluorobenzoic acid]"
3,< 0.5,"O=C(O)c1cccc(Sc2c(C3CC3)n(-c3cccnc3)c3c(F)c(Cl)ccc23)c1F [Compound 2-3, 3-((6-chloro-2-cyclopropyl-7-fluoro-1-(pyridin-3-yl)-1H-indol-3-yl)thio)-2-fluorobenzoic acid]"
4,< 0.5,"NCCn1cc(-n2c(C3CC3)c(Sc3cccc(C(=O)O)c3F)c3ccc(Cl)c(F)c32)cn1 [Compound 1-122, 3-(1-(1-(2-aminoethyl)-1H-pyrazol-4-yl)-(6-chloro-2-cyclopropyl-7-fluoro-1H-indol-3-yl)thio)-2-fluorobenzoic acid]"
5,< 0.5,"NCCCCCCn1cc(-n2c(C3CC3)c(Sc3cccc(C(=O)O)c3F)c3ccc(Cl)c(F)c32)cn1 [Compound 1-128, 3-(1-(1-(6-aminohexyl)-1H-pyrazol-4-yl)-(6-chloro-2-cyclopropyl-7-fluoro-1H-indol-3-yl)thio)-2-fluorobenzoic acid]"
6,< 0.5,"O=C(O)c1cccc(Sc2c(Cl)n(-c3cccnc3)c3c(F)c(Cl)ccc23)c1F [Compound 2-1, 3-((2,6-dichloro-7-fluoro-1-(pyridin-3-yl)-1H-indol-3-yl)thio)-2-fluorobenzoic acid]"
7,< 0.5,"CCn1cc(-n2c(C3CC3)c(Sc3cccc(CC(=O)O)c3F)c3ccc(Cl)c(F)c32)cn1 [Compound 2-7, 2-(3-((6-chloro-2-cyclopropyl-1-(1-ethyl-1H-pyrazol-4-yl)-7-fluoro-1H-indol-3-yl)thio)-2-fluorophenyl)acetic acid]"
8,< 0.5,"NC(=O)OCCn1cc(-n2c(C3CC3)c(Sc3cccc(C(=O)O)c3F)c3ccc(Cl)c(F)c32)cn1 [Compound 1-121, 3-(1-(1-(2-(carbamoyloxy)ethyl)-1H-pyrazol-4-yl)-(6-chloro-2-cyclopropyl-7-fluoro-1H-indol-3-yl)thio)-2-fluorobenzoic acid]"
9,< 0.5,"NC(=O)NCCn1cc(-n2c(C3CC3)c(Sc3cccc(C(=O)O)c3F)c3ccc(Cl)c(F)c32)cn1 [Compound 1-123, 3-((6-chloro-2-cyclopropyl-7-fluoro-1-(1-(2-ureidoethyl)-1H-pyrazol-4-yl)-1H-indol-3-yl)thio)-2-fluorobenzoic acid]"
10,< 0.5,"O=C(O)c1cccc(Sc2c(C3CC3)n(-c3cnn(CC(F)(F)F)c3)c3c(F)c(Cl)ccc23)c1F [Compound 1-126, 3-((6-chloro-2-cyclopropyl-7-fluoro-1-(1-(2,2,2-trifluoroethyl)-1H-pyrazol-4-yl)-1H-indol-3-yl)thio)-2-fluorobenzoic acid]"
11,< 0.5,"O=C(O)CCCn1cc(-n2c(C3CC3)c(Sc3cccc(C(=O)O)c3F)c3ccc(Cl)c(F)c32)cn1 [Compound 1-124, 3-(1-(1-(3-carboxypropyl)-1H-pyrazol-4-yl)-(6-chloro-2-cyclopropyl-7-fluoro-1H-indol-3-yl)thio)-2-fluorobenzoic acid]"

# The next lines start with the molecule.
row,Molecule,IC50 [µM]
1,"CCCn1cc(-n2c(C3CC3)c(Sc3cccc(C(=O)O)c3)c3ccc(Cl)c(F)c32)cn1 [Compound 1-10, 3-((6-chloro-2-cyclopropyl-7-fluoro-1-(1-propyl-1H-pyrazol-4-yl)-1H-indol-3-yl)thio)benzoic acid]",< 0.5
2,"O=C(O)c1cccc(Sc2c(C3CC3)n(-c3cnn(CCO)c3)c3c(F)c(Cl)ccc23)c1F [Compound 1-120, 3-((6-chloro-2-cyclopropyl-7-fluoro-1-(1-(2-hydroxyethyl)-1H-pyrazol-4-yl)-1H-indol-3-yl)thio)-2-fluorobenzoic acid]",< 0.5
3,"CCn1cc(-n2c(Cl)c(Sc3cccc(C(=O)O)c3F)c3ccc(Cl)c(F)c32)cn1 [Compound 1-31, 3-((2,6-dichloro-1-(1-ethyl-1H-pyrazol-4-yl)-7-fluoro-1H-indol-3-yl)thio)-2-fluorobenzoic acid]",< 0.5
4,"CCCn1cc(-n2c(Cl)c(Sc3cccc(C(=O)O)c3)c3ccc(Cl)cc32)cn1 [Compound 1-1, 3-((2,6-dichloro-1-(1-propyl-1H-pyrazol-4-yl)-1H-indol-3-yl)thio)benzoic acid]",< 0.5
5,"CCCn1cc(-n2c(C3CC3)c(Sc3cccc(C(=O)O)c3F)c3ccc(Cl)c(F)c32)cn1 [Compound 1-16, 3-((6-chloro-2-cyclopropyl-7-fluoro-1-(1-propyl-1H-pyrazol-4-yl)-1H-indol-3-yl)thio)-2-fluorobenzoic acid]",< 0.5
6,"3-((6-chloro-2-cyclopropyl-1-(1-(6-(3-(3′,6′-dihydroxy-3-oxo-3H-spiro[isobenzofuran-1,9′-xanthen]-5-yl)ureido)hexyl)-1H-pyrazol-4-yl)-7-fluoro-1H-indol-3-yl)thio)-2-fluorobenzoic acid [Compound 1-131]",< 0.5
7,"CCCn1cc(-n2c(Cl)c(Sc3cccc(C(=O)O)c3)c3ccc(Cl)c(F)c32)cn1 [Compound 1-7, 3-((2,6-dichloro-7-fluoro-1-(1-propyl-1H-pyrazol-4-yl)-1H-indol-3-yl)thio)benzoic acid]",< 0.5
8,"Cn1cc(-n2c(Cl)c(Sc3cccc(C(=O)O)c3F)c3ccc(Cl)c(F)c32)cn1 [Compound 1-49, 3-((2,6-dichloro-7-fluoro-1-(1-methyl-1H-pyrazol-4-yl)-1H-indol-3-yl)thio)-2-fluorobenzoic acid]",< 0.5
9,"CCCn1cc(-n2c(C#N)c(Sc3cccc(C(=O)O)c3)c3ccc(Cl)cc32)cn1 [Compound 1-3, 3-((6-chloro-2-cyano-1-(1-propyl-1H-pyrazol-4-yl)-1H-indol-3-yl)thio)benzoic acid]",< 0.5
10,"O=C(O)c1cccc(Sc2c(C3CC3)n(-c3cn[nH]c3)c3c(F)c(Cl)ccc23)c1F [Compound 1-119, 3-((6-chloro-2-cyclopropyl-7-fluoro-1-(1H-pyrazol-4-yl)-1H-indol-3-yl)thio)-2-fluorobenzoic acid]",< 0.5
11,"CCCn1cc(-n2c(C3CC3)c(Sc3cccc(C(=O)O)c3)c3ccc(Cl)cc32)cn1 [Compound 1-4, 3-((6-chloro-2-cyclopropyl-1-(1-propyl-1H-pyrazol-4-yl)-1H-indol-3-yl)thio)benzoic acid]",< 0.5
12,"CCn1cc(-n2c(C3CC3)c(Sc3cccc(C(=O)O)n3)c3ccc(Cl)c(F)c32)cn1 [Compound 1-92, 6((6-chloro-2-cyclopropyl-1-(1-ethyl-1H-pyrazol-4-yl)-7-fluoro-1H-indol-3-yl)thio)picolinic acid]",< 0.5
